Literature values in patent US20030083360A1, “Compaction process for manufacture of sodium phenytoin dosage form” (priority 2001, published 2003).
Read-outs that look alike come from different tables or passages of the source.

solubility in water (listed as free-phenytoin) | SMILES | solubility in water
practically insoluble in water | O=C1NC(=O)C(c2ccccc2)(c2ccccc2)N1 [phenytoin, 5,5-diphenyl-2,4-imidazolidinedione] | poor solubility in water
– | O=C1N=C([O-])NC1(c1ccccc1)c1ccccc1.[Na+] [sodium phenytoin] | much more soluble
